Measurements published in ChEMBL document CHEMBL5678818, “Discovery of potent SOS1 inhibitors that block RAS activation via disruption of the RAS-SOS1 interaction” (Proc Natl Acad Sci U S A, 2019).

How the values were obtained:
[1] = molecular target: Calcium/calmodulin-dependent protein kinase type 1D (Homo sapiens) (UniProt Q8IU85); experiment: Inhibition of CAMK1D (unknown origin) assessed as residual activity at 1000 nM by KINOMEscan analysis relative to control
[2] = molecular target: Rho-associated protein kinase 1 (Homo sapiens) (UniProt Q13464); experiment: Inhibition of ROCK1 (unknown origin) assessed as residual activity at 1000 nM by KINOMEscan analysis relative to control
[3] = molecular target: Mitogen-activated protein kinase kinase kinase 4 (Homo sapiens) (UniProt Q9Y6R4); experiment: Inhibition of MAP3K4 (unknown origin) assessed as residual activity at 1000 nM by KINOMEscan analysis relative to control
[4] = molecular target: T1, Serine/threonine-protein kinase Nek1 (Homo sapiens) (UniProt Q96PY6); experiment: Inhibition of NEK1 (unknown origin) assessed as residual activity at 1000 nM by KINOMEscan analysis relative to control
T1 sequence (whole entry): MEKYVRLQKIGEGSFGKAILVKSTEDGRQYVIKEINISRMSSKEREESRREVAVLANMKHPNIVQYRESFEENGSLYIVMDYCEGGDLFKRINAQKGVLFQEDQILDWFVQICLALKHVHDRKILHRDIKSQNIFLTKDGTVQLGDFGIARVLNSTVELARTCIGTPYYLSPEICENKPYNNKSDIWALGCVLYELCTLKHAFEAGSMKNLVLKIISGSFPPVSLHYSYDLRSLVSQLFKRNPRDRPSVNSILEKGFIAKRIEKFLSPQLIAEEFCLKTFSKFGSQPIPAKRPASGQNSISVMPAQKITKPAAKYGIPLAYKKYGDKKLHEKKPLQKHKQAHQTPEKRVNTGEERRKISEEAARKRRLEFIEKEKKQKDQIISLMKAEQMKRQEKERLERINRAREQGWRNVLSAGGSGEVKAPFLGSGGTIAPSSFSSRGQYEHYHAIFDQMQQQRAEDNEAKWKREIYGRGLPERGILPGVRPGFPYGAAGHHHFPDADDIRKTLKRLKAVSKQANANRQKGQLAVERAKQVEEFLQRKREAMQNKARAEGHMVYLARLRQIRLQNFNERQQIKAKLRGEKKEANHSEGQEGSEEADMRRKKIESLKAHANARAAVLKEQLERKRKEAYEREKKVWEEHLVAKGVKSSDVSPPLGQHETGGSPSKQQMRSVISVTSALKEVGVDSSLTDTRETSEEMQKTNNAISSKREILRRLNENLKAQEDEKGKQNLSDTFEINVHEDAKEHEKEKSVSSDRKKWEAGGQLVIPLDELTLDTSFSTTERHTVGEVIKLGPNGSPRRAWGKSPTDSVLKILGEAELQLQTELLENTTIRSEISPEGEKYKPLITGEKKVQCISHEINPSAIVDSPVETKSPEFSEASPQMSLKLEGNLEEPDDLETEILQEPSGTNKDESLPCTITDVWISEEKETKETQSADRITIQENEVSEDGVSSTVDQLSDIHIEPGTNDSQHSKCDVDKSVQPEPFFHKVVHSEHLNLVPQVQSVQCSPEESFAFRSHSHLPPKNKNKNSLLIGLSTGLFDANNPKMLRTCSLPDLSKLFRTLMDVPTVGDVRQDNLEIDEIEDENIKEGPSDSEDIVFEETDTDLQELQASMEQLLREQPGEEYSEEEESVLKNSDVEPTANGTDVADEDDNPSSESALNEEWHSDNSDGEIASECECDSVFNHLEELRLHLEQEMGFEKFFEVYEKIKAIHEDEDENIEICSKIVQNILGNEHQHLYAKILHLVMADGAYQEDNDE

[5] = molecular target: Calcium/calmodulin-dependent protein kinase type 1G (Homo sapiens) (UniProt Q96NX5); experiment: Inhibition of CAMK1G (unknown origin) assessed as residual activity at 1000 nM by KINOMEscan analysis relative to control
[6] = molecular target: Ribosomal protein S6 kinase alpha-3 (Homo sapiens) (UniProt P51812); experiment: Inhibition of C-terminal RSK2 kinetic domain 2 (unknown origin) assessed as residual activity at 1000 nM by KINOMEscan analysis relative to control
[7] = molecular target: Bone morphogenetic protein receptor type-1A (Homo sapiens) (UniProt P36894); experiment: Inhibition of BMPR1A (unknown origin) assessed as residual activity at 1000 nM by KINOMEscan analysis relative to control
[8] = molecular target: Serine/threonine-protein kinase 10 (Homo sapiens) (UniProt O94804); experiment: Inhibition of LOK (unknown origin) assessed as residual activity at 1000 nM by KINOMEscan analysis relative to control
[9] = molecular target: T2, Mitogen-activated protein kinase kinase kinase 3 (Homo sapiens) (UniProt Q99759); experiment: Inhibition of MAP3K3 (unknown origin) assessed as residual activity at 1000 nM by KINOMEscan analysis relative to control
T2 sequence (whole entry): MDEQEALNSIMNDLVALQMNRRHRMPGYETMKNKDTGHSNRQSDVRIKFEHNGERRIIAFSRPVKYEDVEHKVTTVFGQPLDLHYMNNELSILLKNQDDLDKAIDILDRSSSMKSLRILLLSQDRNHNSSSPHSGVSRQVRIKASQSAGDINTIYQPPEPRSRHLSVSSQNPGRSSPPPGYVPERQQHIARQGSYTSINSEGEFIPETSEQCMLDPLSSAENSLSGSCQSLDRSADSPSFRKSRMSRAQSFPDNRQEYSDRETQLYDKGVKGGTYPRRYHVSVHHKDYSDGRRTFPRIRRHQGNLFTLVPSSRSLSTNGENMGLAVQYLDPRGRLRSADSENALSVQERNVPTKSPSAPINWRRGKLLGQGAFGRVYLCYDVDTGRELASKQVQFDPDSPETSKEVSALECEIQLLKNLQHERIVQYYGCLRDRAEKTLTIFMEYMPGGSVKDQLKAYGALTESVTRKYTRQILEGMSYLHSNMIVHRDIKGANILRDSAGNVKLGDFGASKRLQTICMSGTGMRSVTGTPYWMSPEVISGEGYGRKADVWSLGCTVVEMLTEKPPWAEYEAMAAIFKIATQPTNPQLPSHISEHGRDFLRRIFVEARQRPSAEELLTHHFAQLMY

[10] = molecular target: cAMP-dependent protein kinase catalytic subunit beta (Homo sapiens) (UniProt P22694); experiment: Inhibition of PKAC-beta (unknown origin) assessed as residual activity at 1000 nM by KINOMEscan analysis relative to control
[11] = molecular target: Cyclin-dependent kinase 18 (Homo sapiens) (UniProt Q07002); experiment: Inhibition of PCTK3 (unknown origin) assessed as residual activity at 1000 nM by KINOMEscan analysis relative to control
[12] = molecular target: Cyclin-dependent kinase 3 (Homo sapiens) (UniProt Q00526); experiment: Inhibition of CDK3 (unknown origin) assessed as residual activity at 1000 nM by KINOMEscan analysis relative to control
[13] = molecular target: Serine/threonine-protein kinase PAK 5 (Homo sapiens) (UniProt Q9P286); experiment: Inhibition of PAK7 (unknown origin) assessed as residual activity at 1000 nM by KINOMEscan analysis relative to control
Sequence of Serine/threonine-protein kinase PAK 5 (Homo sapiens) (Q9P286 whole entry, looked up): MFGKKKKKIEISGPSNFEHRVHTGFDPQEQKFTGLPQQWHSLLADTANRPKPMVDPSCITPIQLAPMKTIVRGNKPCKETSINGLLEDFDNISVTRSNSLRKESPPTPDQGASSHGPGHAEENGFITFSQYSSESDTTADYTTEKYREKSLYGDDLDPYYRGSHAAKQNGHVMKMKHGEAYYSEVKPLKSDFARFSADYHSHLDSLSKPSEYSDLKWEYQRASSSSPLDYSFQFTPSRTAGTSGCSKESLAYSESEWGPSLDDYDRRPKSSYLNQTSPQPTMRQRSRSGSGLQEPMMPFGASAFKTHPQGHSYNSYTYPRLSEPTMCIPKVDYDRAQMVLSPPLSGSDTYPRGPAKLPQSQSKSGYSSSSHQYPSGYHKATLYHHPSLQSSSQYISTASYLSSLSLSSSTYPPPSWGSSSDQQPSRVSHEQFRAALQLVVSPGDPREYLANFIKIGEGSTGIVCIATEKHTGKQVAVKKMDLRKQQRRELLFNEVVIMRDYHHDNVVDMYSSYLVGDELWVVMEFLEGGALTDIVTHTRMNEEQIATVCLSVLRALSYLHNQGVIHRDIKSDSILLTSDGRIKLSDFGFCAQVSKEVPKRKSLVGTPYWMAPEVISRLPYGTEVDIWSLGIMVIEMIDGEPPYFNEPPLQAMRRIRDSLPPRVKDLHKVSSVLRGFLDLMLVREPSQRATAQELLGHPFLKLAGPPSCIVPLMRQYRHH

Sequence of Bone morphogenetic protein receptor type-1A (Homo sapiens) (P36894 whole entry): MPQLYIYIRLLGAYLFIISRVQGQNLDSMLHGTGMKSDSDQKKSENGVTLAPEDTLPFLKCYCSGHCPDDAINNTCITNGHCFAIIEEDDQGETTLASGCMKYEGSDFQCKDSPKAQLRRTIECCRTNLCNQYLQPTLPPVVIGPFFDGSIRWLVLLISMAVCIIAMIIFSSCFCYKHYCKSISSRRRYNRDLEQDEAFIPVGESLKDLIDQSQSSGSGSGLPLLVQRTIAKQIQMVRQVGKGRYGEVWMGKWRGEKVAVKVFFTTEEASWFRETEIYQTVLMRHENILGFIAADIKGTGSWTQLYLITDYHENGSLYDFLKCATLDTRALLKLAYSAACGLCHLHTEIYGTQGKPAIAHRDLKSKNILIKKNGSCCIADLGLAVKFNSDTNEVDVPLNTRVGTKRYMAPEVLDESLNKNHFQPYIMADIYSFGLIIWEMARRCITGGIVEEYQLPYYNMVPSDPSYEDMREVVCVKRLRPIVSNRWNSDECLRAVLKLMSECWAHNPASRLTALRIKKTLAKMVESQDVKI
Sequence of Calcium/calmodulin-dependent protein kinase type 1G (Homo sapiens) (Q96NX5 whole entry, the tested form may be a part): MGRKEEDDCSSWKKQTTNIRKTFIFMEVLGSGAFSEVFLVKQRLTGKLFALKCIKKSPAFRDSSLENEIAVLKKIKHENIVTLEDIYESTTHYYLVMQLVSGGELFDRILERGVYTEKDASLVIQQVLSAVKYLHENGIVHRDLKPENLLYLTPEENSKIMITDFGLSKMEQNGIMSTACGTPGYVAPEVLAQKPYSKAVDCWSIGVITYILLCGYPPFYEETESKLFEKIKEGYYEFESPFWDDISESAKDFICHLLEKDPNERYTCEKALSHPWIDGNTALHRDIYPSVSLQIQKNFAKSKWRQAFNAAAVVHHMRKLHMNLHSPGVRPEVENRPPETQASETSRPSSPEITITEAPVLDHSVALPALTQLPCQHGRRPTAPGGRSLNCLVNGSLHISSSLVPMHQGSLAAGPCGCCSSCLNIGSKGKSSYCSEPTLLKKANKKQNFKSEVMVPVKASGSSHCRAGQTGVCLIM
Sequence of Rho-associated protein kinase 1 (Homo sapiens) (Q13464 2-1354 limits assumed): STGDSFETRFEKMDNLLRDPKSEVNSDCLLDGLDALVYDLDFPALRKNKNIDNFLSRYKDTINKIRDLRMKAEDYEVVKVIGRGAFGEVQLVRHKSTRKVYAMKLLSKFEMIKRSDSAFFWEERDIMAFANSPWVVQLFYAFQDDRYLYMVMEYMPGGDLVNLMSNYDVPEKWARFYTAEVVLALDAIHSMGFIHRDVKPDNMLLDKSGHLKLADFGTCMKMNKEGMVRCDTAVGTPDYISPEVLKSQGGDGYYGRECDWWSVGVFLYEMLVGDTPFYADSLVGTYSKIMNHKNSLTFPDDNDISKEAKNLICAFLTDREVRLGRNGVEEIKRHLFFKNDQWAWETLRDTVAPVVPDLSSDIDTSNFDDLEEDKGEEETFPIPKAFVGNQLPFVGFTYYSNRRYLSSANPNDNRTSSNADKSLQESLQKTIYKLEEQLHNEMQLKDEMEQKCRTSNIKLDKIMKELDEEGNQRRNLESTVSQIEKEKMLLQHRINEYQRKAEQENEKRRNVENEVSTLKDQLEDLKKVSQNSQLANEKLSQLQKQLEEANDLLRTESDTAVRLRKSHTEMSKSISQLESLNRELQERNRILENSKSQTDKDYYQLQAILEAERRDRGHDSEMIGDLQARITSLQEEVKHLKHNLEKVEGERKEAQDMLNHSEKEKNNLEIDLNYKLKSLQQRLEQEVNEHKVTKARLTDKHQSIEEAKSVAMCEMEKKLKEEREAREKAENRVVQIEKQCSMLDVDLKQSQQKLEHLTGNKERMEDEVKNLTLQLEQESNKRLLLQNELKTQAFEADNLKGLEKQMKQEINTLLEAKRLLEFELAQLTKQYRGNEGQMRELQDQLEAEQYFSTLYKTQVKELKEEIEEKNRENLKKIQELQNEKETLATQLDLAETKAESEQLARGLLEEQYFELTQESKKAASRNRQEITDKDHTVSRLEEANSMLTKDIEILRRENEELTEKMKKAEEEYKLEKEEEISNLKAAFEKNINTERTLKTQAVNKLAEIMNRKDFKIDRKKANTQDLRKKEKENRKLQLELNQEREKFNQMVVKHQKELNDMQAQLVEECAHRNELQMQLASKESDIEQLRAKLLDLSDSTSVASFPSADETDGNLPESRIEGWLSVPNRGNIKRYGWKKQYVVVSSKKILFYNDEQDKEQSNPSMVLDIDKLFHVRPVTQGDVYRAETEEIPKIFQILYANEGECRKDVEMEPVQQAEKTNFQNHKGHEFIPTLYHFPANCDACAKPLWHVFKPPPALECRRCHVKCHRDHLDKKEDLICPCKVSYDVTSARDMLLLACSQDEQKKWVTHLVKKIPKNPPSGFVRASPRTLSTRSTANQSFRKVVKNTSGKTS
Sequence of Cyclin-dependent kinase 18 (Homo sapiens) (Q07002 whole entry): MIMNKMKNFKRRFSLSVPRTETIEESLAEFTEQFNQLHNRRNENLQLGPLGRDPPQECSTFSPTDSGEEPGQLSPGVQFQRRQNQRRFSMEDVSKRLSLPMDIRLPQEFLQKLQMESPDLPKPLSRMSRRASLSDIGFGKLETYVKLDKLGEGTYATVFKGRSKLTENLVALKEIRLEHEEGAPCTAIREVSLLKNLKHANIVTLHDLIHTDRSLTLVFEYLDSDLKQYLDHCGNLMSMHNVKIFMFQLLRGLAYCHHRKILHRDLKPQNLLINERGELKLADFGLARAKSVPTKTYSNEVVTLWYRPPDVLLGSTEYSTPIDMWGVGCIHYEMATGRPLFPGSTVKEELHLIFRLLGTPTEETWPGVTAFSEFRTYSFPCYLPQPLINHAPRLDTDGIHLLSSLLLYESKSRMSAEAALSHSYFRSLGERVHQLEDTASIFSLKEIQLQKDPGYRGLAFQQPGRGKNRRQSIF
Sequence of Calcium/calmodulin-dependent protein kinase type 1D (Homo sapiens) (Q8IU85 whole entry, looked up): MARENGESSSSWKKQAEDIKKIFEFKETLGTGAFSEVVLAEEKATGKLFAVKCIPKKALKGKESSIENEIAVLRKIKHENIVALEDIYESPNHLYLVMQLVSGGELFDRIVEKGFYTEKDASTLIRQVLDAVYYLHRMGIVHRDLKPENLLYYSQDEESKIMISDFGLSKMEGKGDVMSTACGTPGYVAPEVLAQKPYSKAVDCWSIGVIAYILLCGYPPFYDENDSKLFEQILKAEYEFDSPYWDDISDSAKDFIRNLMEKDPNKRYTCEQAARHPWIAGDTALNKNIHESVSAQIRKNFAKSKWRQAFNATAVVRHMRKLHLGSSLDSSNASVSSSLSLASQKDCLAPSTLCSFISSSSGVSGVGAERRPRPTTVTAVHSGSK
Sequence of Serine/threonine-protein kinase 10 (Homo sapiens) (O94804 whole entry, looked up): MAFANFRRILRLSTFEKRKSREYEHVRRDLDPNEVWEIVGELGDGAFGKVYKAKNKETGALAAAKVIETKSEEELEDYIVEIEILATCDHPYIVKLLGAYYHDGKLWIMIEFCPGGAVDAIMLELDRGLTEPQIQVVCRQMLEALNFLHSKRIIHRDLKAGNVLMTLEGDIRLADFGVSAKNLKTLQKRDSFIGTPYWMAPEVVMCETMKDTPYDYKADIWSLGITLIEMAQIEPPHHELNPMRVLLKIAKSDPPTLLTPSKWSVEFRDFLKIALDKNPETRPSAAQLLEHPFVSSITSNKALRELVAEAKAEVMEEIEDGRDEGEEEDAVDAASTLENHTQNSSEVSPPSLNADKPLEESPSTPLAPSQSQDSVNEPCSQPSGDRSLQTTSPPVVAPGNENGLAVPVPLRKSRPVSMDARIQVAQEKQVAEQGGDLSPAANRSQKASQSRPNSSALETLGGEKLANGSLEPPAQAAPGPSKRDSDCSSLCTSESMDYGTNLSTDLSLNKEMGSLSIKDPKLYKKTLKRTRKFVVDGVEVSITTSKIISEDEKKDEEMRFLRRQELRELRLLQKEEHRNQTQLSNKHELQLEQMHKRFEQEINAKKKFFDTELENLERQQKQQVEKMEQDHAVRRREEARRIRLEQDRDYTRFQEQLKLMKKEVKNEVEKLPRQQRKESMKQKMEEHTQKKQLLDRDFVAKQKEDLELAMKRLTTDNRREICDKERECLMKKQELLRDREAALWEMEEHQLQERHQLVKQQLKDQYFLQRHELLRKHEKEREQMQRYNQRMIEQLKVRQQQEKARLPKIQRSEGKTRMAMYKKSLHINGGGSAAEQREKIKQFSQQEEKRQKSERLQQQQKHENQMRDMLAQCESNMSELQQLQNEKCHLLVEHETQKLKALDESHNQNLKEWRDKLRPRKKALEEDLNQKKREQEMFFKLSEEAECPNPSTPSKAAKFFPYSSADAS

Row | Compound | Activity [1] [%] | Activity [2] [%] | Activity [3] [%] | Activity [4] [%] | Activity [5] [%] | Activity [6] [%] | Activity [7] [%] | Activity [8] [%] | Activity [9] [%] | Activity [10] [%] | Activity [11] [%] | Activity [12] [%] | Activity [13] [%]
1 | COc1cc2nc(C)nc(N[C@H](C)c3cccc(-c4cn[nH]c4)c3)c2cc1OC | 68 | 96 | 50 | 100 | 100 | 100 | 97 | 56 | 95 | 73 | 99 | 90 | 96
2 | COc1cc2ncnc(N[C@H](C)c3cccc4ccccc34)c2cc1OC | 81 | 88 | 96 | 96 | 98 | 100 | 100 | 44 | 100 | 100 | 100 | 97 | 100
